Reference: PubChem BioAssay (NCI)
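Assay format: 96-well plates, 48-hour exposure. TGI: concentration producing complete growth inhibition.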

Legend:
Test in all cases: NCI anticancer screen, dose series, 48 h
ACHN renal = tested on: ACHN renal
COLO 205 colon = tested on: COLO 205 colon
HCT-15 colon = tested on: HCT-15 colon
HOP-92 NSCLC = tested on: HOP-92 NSCLC
HT29 colon = tested on: HT29 colon
IGROV1 ovarian = tested on: IGROV1 ovarian
MOLT-4 leukemia = tested on: MOLT-4 leukemia
OVCAR-4 ovarian = tested on: OVCAR-4 ovarian
SF-268 CNS = tested on: SF-268 CNS
SK-MEL-5 melanoma = tested on: SK-MEL-5 melanoma
SK-OV-3 ovarian = tested on: SK-OV-3 ovarian
SR leukemia = tested on: SR leukemia
TK-10 renal = tested on: TK-10 renal
BT-549 breast = tested on: BT-549 breast
HS 578T breast = tested on: HS 578T breast
MCF7 breast = tested on: MCF7 breast
MDA-MB-435 = tested on: MDA-MB-435

Measured: TGI

CC1=CC(=O)NP(=O)(Oc2ccc(C)cc2)N1 (stereo not drawn)
not listed: BT-549 breast | HS 578T breast | MCF7 breast | MDA-MB-435
> 100 µM: all other assays above

Cc1ccccc1Nc1cn(COCc2ccccc2)c(=O)[nH]c1=O
66.2 µM: BT-549 breast
not listed: SK-OV-3 ovarian | SR leukemia | TK-10 renal
> 100 µM: all other assays above

CN(C)/N=C(\CCN1CCCC1)CC(c1ccccc1)c1c(O)c2ccccc2oc1=O (stereo not drawn)
> 100 µM: ACHN renal | COLO 205 colon | HOP-92 NSCLC | HT29 colon | IGROV1 ovarian | OVCAR-4 ovarian | SF-268 CNS | SK-OV-3 ovarian | TK-10 renal

O=C(c1ccc(Cl)cc1Cl)N(C(=O)N1CCCCC1)c1ccccc1
not listed: HOP-92 NSCLC | OVCAR-4 ovarian | SR leukemia
> 100 µM: all other assays above

O=P(c1ccccc1)(c1ccccc1)C(NCc1ccccc1)c1ccc(F)cc1 (stereo not drawn)
33.4 µM: IGROV1 ovarian
29.7 µM: COLO 205 colon
37.5 µM: MOLT-4 leukemia
29.6 µM: SK-MEL-5 melanoma
37.4 µM: SF-268 CNS
27.5 µM: ACHN renal
28.7 µM: HCT-15 colon
26.6 µM: HOP-92 NSCLC
92.6 µM: OVCAR-4 ovarian
98.2 µM: HS 578T breast
49.5 µM: SR leukemia
34.1 µM: SK-OV-3 ovarian
23 µM: MDA-MB-435
32 µM: TK-10 renal
26.5 µM: HT29 colon

Cc1cc(O)c(/C=N/C(=S)NCCc2ccccc2)c(=O)o1
not listed: SF-268 CNS | SR leukemia | HS 578T breast
> 100 µM: all other assays above

Cc1cc(=O)[nH]c(NNC(C#N)c2ccc(O)cc2)n1 (stereo not drawn)
not listed: BT-549 breast | HS 578T breast | MCF7 breast | MDA-MB-435
> 100 µM: all other assays above

O=C(CC(=O)n1nc(-c2ccccc2)c(N=Nc2ccc(Cl)cc2)c1-c1ccccc1)Nc1cccc(Cl)c1
not listed: OVCAR-4 ovarian | SF-268 CNS | SK-OV-3 ovarian | MCF7 breast | MDA-MB-435
> 100 µM: all other assays above

Cc1ccc2nc3ccccc3c(C3C4C(=O)N(c5ccc(Br)cc5Cl)C(=O)C4ON3C(C(N)=O)c3ccccc3)c2c1 (stereo not drawn)
15.3 µM: ACHN renal
19.5 µM: HCT-15 colon
not listed: BT-549 breast
> 25 µM: all other assays above

O=C1CCC(c2ccccc2)C(O)(C(=O)O)C1 (stereo not drawn)
not listed: BT-549 breast | HS 578T breast | MCF7 breast | MDA-MB-435
> 100 µM: all other assays above

CCOC(=O)c1c(SC(=O)/C=C/c2ccccc2)n(-c2ccccc2)c(=S)n(-c2ccccc2)c1=O
not listed: SK-MEL-5 melanoma | BT-549 breast
> 100 µM: all other assays above

Cc1[nH]c(=O)[nH]c(=S)c1C(=O)NC(C)(CO)CO
not listed: SR leukemia | BT-549 breast
> 100 µM: all other assays above

COC(=O)c1ccc2c(c1)CC1(C2)Cc2cc3c(cc2C1=O)CCC3 (stereo not drawn)
34.7 µM: HT29 colon
38.7 µM: COLO 205 colon
57.4 µM: MDA-MB-435
50.9 µM: MCF7 breast
21.2 µM: SK-MEL-5 melanoma
29.2 µM: MOLT-4 leukemia
not listed: SR leukemia | BT-549 breast
> 100 µM: all other assays above

COc1ccc(-c2c(C(C)=O)c(-c3ccccc3)n(C3OC(COC(C)=O)C(OC(C)=O)C(OC(C)=O)C3OC(C)=O)c(=S)c2C#N)cc1 (stereo not drawn)
71.7 µM: HOP-92 NSCLC
not listed: BT-549 breast | HS 578T breast
> 100 µM: all other assays above

C/C(=N\NC(=S)N1CC2CCC(CC2)C1)c1ccncn1
3.62 µM: SF-268 CNS
2.56 µM: TK-10 renal
5.9 µM: MDA-MB-435
5.5 µM: HT29 colon
0.833 µM: SK-MEL-5 melanoma
3.9 µM: HOP-92 NSCLC
< 0.0333 µM: COLO 205 colon
9.92 µM: OVCAR-4 ovarian
> 24.4 µM: HS 578T breast
3.54 µM: BT-549 breast
3.78 µM: IGROV1 ovarian
3.28 µM: ACHN renal
1.6 µM: SK-OV-3 ovarian
7.61 µM: MCF7 breast

CC(=O)NNc1nc(C)c(C(/C=C/c2cccc([N+](=O)[O-])c2)=N/NC(=S)NN)s1
not listed: SR leukemia
> 100 µM: all other assays above
